# Measurements as given in patent publication US9371336B2, “Compounds for treating spinal muscular atrophy” (PTC Therapeutics Inc., priority 2012, dated 2016).
# Tests used:
# [1] = system: SMN2 minigene mRNA (SMN2-A minigene construct); assay: SMN2 minigene mRNA splicing RT-qPCR assay in cultured cells; assay type: cell-based, human; conditions: for inclusion of exon 7 of SMN2 into mRNA / SMN2 minigene FL mRNA relative to vehicle control: HEK293H cells with SMN2-A minigene, 24 hr; for inclusion of exon 7 of SMN2 into mRNA: relative to untreated cells (FIG. 3); for SMN2 minigene FL mRNA relative to vehicle control: rising concentrations, RT-qPCR (FIG. 3); for EC (1.5-fold): Homo sapiens, HEK293-H, HEK293H cells stably transfected with SMN2-A minigene, 24 hours, 7-point concentration data, concentration giving 1.5-fold SMN2 full length mRNA relative to vehicle-treated cells, read-out: EC1.5x for production of full length SMN2 mRNA
# How it was run: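 Full-length SMN2 minigene mRNA, measured by exon 7/luciferase-specific RT-qPCR that excludes endogenous SMN1/SMN2, was normalized to GAPDH and expressed relative to vehicle-treated cells via modified ΔΔCt. Stably transfected HEK293H cells received compound (7-point, 3.16-fold series, duplicates) for 24 h at 37 °C.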
# Smn protein = Smn protein assay (HTRF) in cultured cells (SMA patient fibroblasts GM03813); assay type: cell-based, human; conditions: for Smn protein expression: SMA Type 1 patient fibroblast cells, 48 hour, SMN HTRF assay (FIG. 6); for EC1.5x for Smn protein expression: SMA patient fibroblast cells (GM03813), HTRF, 7-point concentration data, concentration producing 1.5 times Smn protein vs DMSO vehicle control; for EC1.5x for Smn protein expression / maximum fold (Fold) increase of Smn protein: 48 hours; for maximum fold (Fold) increase of Smn protein: SMA patient fibroblast cells, 7-point concentration curve, relative to vehicle control
# How it was run: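 Smn level is expressed as fold over vehicle, from blank-corrected ΔF of the 665/620 nm HTRF ratio. Readout used anti-SMN d2 and kryptate antibodies on RIPA lysates. GM03813 SMA fibroblasts had 48 h exposure at 37° C to seven 3.16-fold compound dilutions, run in triplicate.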
SMILES,inclusion of exon 7 of SMN2 into mRNA [1],SMN2 minigene FL mRNA relative to vehicle control [1],EC (1.5-fold) [1] [µM],Smn protein expression (Smn protein),EC1.5x for Smn protein expression (Smn protein),maximum fold (Fold) increase of Smn protein (Smn protein)
"CN1CCN(c2ccc3cc(-c4nc5c(Cl)cccc5s4)c(=O)oc3n2)CC1 [Cpd 5, 3-(4-chloro-1,3-benzothiazol-2-yl)-7-(4-methylpiperazin-1-yl)-2H-pyrano[2,3-b]pyridin-2-one]",fully restored exon 7 inclusion,increased SMN2 minigene FL mRNA at low concentrations,0.1 to 0.3,dose dependent increase in Smn protein expression,*** (an EC1.5× between >0.3 μM and ≦1 μM is indicated by three stars (***)),**** (a fold increase between >1.5 and ≦1.65 is indicated by four stars (****))
"Cc1ccc2nc(-c3cc4ccc(N5CCN(C)CC5)nc4oc3=O)cn2c1 [Cpd 27, 3-(6-methylimidazo[1,2-a]pyridin-2-yl)-7-(4-methylpiperazin-1-yl)-2H-pyrano[2,3-b]pyridin-2-one]",fully restored exon 7 inclusion,increased SMN2 minigene FL mRNA at low concentrations,0.1 to 0.3,dose dependent increase in Smn protein expression,** (an EC1.5× between >1 and ≦3 μM is indicated by two stars (**)),**** (a fold increase between >1.5 and ≦1.65 is indicated by four stars (****))
